From PubChem BioAssay (NCI)
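Where inhibition never reached the appropriate level, the endpoint shown equals the highest concentration tested. Otherwise, values were interpolated linearly from a five-concentration, 48-hour dose response in 96-well plates. GI50 is the concentration that inhibits growth by half. TGI: total growth inhibition.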

Experiments:
Assay in all cases: NCI-60 cell line screen, 48 h
OVCAR-8 ovarian = test system: OVCAR-8 ovarian
PC-3 prostate = test system: PC-3 prostate
SF-539 CNS = test system: SF-539 CNS
OVCAR-4 ovarian = test system: OVCAR-4 ovarian
T-47D breast = test system: T-47D breast
A498 renal = test system: A498 renal
RXF 393 renal = test system: RXF 393 renal
A549 NSCLC = test system: A549 NSCLC
CAKI-1 renal = test system: CAKI-1 renal
COLO 205 colon = test system: COLO 205 colon
HOP-92 NSCLC = test system: HOP-92 NSCLC
NCI/ADR-RES ovarian = test system: NCI/ADR-RES ovarian
MDA-MB-231 breast = test system: MDA-MB-231 breast
U251 CNS = test system: U251 CNS
SW-620 colon = test system: SW-620 colon
EKVX NSCLC = test system: EKVX NSCLC
BT-549 breast = test system: BT-549 breast
RPMI-8226 leukemia = test system: RPMI-8226 leukemia
SK-MEL-28 melanoma = test system: SK-MEL-28 melanoma
MOLT-4 leukemia = test system: MOLT-4 leukemia
OVCAR-5 ovarian = test system: OVCAR-5 ovarian
NCI-H522 lung = test system: NCI-H522 lung
K-562 leukemia = test system: K-562 leukemia
CCRF-CEM leukemia = test system: CCRF-CEM leukemia
SN12C renal = test system: SN12C renal
HS 578T breast = test system: HS 578T breast
NCI-H226 lung = test system: NCI-H226 lung
KM12 colon = test system: KM12 colon
SNB-19 CNS = test system: SNB-19 CNS
MALME-3M melanoma = test system: MALME-3M melanoma
786-0 renal = test system: 786-0 renal
HCT-15 colon = test system: HCT-15 colon
HOP-62 NSCLC = test system: HOP-62 NSCLC
IGROV1 ovarian = test system: IGROV1 ovarian
HCT-116 colon = test system: HCT-116 colon
SR leukemia = test system: SR leukemia
MCF7 breast = test system: MCF7 breast
DU-145 prostate = test system: DU-145 prostate
ACHN renal = test system: ACHN renal
HT29 colon = test system: HT29 colon
NCI-H460 lung = test system: NCI-H460 lung
TK-10 renal = test system: TK-10 renal
M14 melanoma = test system: M14 melanoma
UACC-62 melanoma = test system: UACC-62 melanoma
SK-MEL-2 melanoma = test system: SK-MEL-2 melanoma
HL-60(TB) leukemia = test system: HL-60(TB) leukemia
SK-OV-3 ovarian = test system: SK-OV-3 ovarian
UACC-257 melanoma = test system: UACC-257 melanoma
NCI-H23 lung = test system: NCI-H23 lung
SF-268 CNS = test system: SF-268 CNS
MDA-MB-435 = test system: MDA-MB-435
HCC-2998 colon = test system: HCC-2998 colon
SNB-75 CNS = test system: SNB-75 CNS
UO-31 renal = test system: UO-31 renal
SF-295 CNS = test system: SF-295 CNS

Question: What does the source list for `O=c1oc2ccc(-c3ccc(F)cc3F)cc2c(=O)n1-c1cccc(C(F)(F)F)c1`?
Answer: GI50 (OVCAR-8 ovarian): 1720 nM; TGI (OVCAR-8 ovarian): > 50000 nM; GI50 (PC-3 prostate): 1640 nM; TGI (PC-3 prostate): 7540 nM; GI50 (SF-539 CNS): 1590 nM; TGI (SF-539 CNS): 6450 nM; GI50 (OVCAR-4 ovarian): 1610 nM; TGI (OVCAR-4 ovarian): 40100 nM; GI50 (T-47D breast): 1300 nM; TGI (T-47D breast): 4130 nM; GI50 (A498 renal): 902 nM; TGI (A498 renal): 2380 nM; GI50 (RXF 393 renal): 1280 nM; TGI (RXF 393 renal): 3930 nM; GI50 (A549 NSCLC): 1680 nM; TGI (A549 NSCLC): > 50000 nM; GI50 (CAKI-1 renal): 1020 nM; TGI (CAKI-1 renal): 2990 nM; GI50 (COLO 205 colon): 5910 nM; TGI (COLO 205 colon): 14400 nM; GI50 (HOP-92 NSCLC): 952 nM; TGI (HOP-92 NSCLC): 2780 nM; GI50 (NCI/ADR-RES ovarian): 1270 nM; TGI (NCI/ADR-RES ovarian): 3960 nM; GI50 (MDA-MB-231 breast): 1210 nM; TGI (MDA-MB-231 breast): 2970 nM; GI50 (U251 CNS): 1700 nM; TGI (U251 CNS): > 50000 nM; GI50 (SW-620 colon): 1610 nM; TGI (SW-620 colon): 6470 nM; GI50 (EKVX NSCLC): 1180 nM; TGI (EKVX NSCLC): 4640 nM; GI50 (BT-549 breast): 1660 nM; TGI (BT-549 breast): 6770 nM; GI50 (RPMI-8226 leukemia): 1030 nM; TGI (RPMI-8226 leukemia): 3130 nM; GI50 (SK-MEL-28 melanoma): 1730 nM; TGI (SK-MEL-28 melanoma): 7480 nM; GI50 (MOLT-4 leukemia): 1550 nM; TGI (MOLT-4 leukemia): 6890 nM; GI50 (OVCAR-5 ovarian): 1550 nM; TGI (OVCAR-5 ovarian): > 50000 nM; GI50 (NCI-H522 lung): 1420 nM; TGI (NCI-H522 lung): 6020 nM; GI50 (K-562 leukemia): 1630 nM; TGI (K-562 leukemia): > 50000 nM; GI50 (CCRF-CEM leukemia): 1710 nM; TGI (CCRF-CEM leukemia): 24500 nM; GI50 (SN12C renal): 1350 nM; TGI (SN12C renal): 4150 nM; GI50 (HS 578T breast): 1310 nM; TGI (HS 578T breast): 4640 nM; GI50 (NCI-H226 lung): 1510 nM; TGI (NCI-H226 lung): 5580 nM; GI50 (KM12 colon): 1610 nM; TGI (KM12 colon): 5460 nM; GI50 (SNB-19 CNS): 1790 nM; TGI (SNB-19 CNS): > 50000 nM; GI50 (MALME-3M melanoma): 1160 nM; TGI (MALME-3M melanoma): 3260 nM; GI50 (786-0 renal): 1770 nM; TGI (786-0 renal): 9550 nM; GI50 (HCT-15 colon): 1530 nM; TGI (HCT-15 colon): 5600 nM; GI50 (HOP-62 NSCLC): 1480 nM; TGI (HOP-62 NSCLC): 6330 nM; GI50 (IGROV1 ovarian): 1490 nM; TGI (IGROV1 ovarian): 8810 nM; GI50 (HCT-116 colon): 1550 nM; TGI (HCT-116 colon): 5850 nM; GI50 (SR leukemia): 1640 nM; TGI (SR leukemia): > 50000 nM; GI50 (MCF7 breast): 1290 nM; TGI (MCF7 breast): 4790 nM; GI50 (DU-145 prostate): 2000 nM; TGI (DU-145 prostate): > 50000 nM; GI50 (ACHN renal): 1390 nM; TGI (ACHN renal): 4260 nM; GI50 (HT29 colon): 6240 nM; TGI (HT29 colon): > 50000 nM; GI50 (NCI-H460 lung): 1530 nM; TGI (NCI-H460 lung): 5770 nM; GI50 (TK-10 renal): 2250 nM; TGI (TK-10 renal): 12000 nM; GI50 (M14 melanoma): 1710 nM; TGI (M14 melanoma): 8410 nM; GI50 (UACC-62 melanoma): 1200 nM; TGI (UACC-62 melanoma): 3650 nM; GI50 (SK-MEL-2 melanoma): 1210 nM; TGI (SK-MEL-2 melanoma): 3370 nM; GI50 (HL-60(TB) leukemia): 1100 nM; TGI (HL-60(TB) leukemia): 2890 nM; GI50 (SK-OV-3 ovarian): 1310 nM; TGI (SK-OV-3 ovarian): 3970 nM; GI50 (UACC-257 melanoma): 1210 nM; TGI (UACC-257 melanoma): 3870 nM; GI50 (NCI-H23 lung): 1130 nM; TGI (NCI-H23 lung): 3730 nM; GI50 (SF-268 CNS): 1550 nM; TGI (SF-268 CNS): 12000 nM; GI50 (MDA-MB-435): 1580 nM; TGI (MDA-MB-435): 5340 nM; GI50 (HCC-2998 colon): 1600 nM; TGI (HCC-2998 colon): 6240 nM; GI50 (SNB-75 CNS): 906 nM; TGI (SNB-75 CNS): 2590 nM; GI50 (UO-31 renal): 1130 nM; TGI (UO-31 renal): 4920 nM; GI50 (SF-295 CNS): 1230 nM; TGI (SF-295 CNS): 3340 nM
